Measured values from patent publication US20090275562A1 (Cypress Biosciences, Inc., priority 2008, published 2009).

Legend:
[1] = Example 1A clinical study, 6-week weight gain/loss with mirtazapine and reboxetine; assay type: in vivo, human; conditions: for Mean Change from Baseline (weight): Week 6, 4 mg reboxetine morning, 15 mg mirtazapine evening, female volunteers; for mean change in body mass over the course of the study, in words (FIGS. 1-4): completers with fasted body mass at baseline and end of week 6; for 6-week weight gain (or loss), in words: versus placebo, 6 weeks of therapy
Experimental: All medications were administered in an over-encapsulated format that ensures blinding of study participants, staff and investigators. All subjects received a total of 6 weeks of therapy. Vital signs and weight assessments were made at clinic visits at the beginning and end of the study and at various times during the study. Patient outcomes of sleep quality and propensity were evaluated using the Karolinska Sleepiness Scale (KSS) and the Epworth Sleepiness Scale (ESS). Standard safety review was also conducted for each of the subjects, including recordation of any adverse events.
Sensitivity analysis was performed for completers and for intention-to-treat, last observation carried forward ([…]).

[2] = Example 1 tolerability study of mirtazapine and reboxetine in healthy subjects; assay type: in vivo, human; conditions: 6 weeks; 15 mg mirtazapine evening, 2 or 4 mg reboxetine morning; present-tense example
Experimental: (§1) The subjects receive 2 capsules per day, one in the morning and one at bedtime. […] All medications are administered in an over-encapsulated format that ensures blinding of study participants, staff and investigators. All subjects are scheduled to receive a total of 6 weeks of therapy, and are required to return to the clinics after 1, 2, 4 and 6 weeks of therapy. Patients are required to complete paper self-assessments, electronic diary assessments, computer based cognitive testing, as well as vital signs and weight assessments at the clinic visits.

[3] = Example 4 tolerability study of mirtazapine and betahistine in healthy subjects; assay type: in vivo, human; conditions: 6 weeks; 15 mg mirtazapine evening, 8 or 16 mg betahistine morning; present-tense example
Experimental: as §1

[4] = tested on: 5-HT and NA reuptake sites; conditions: from U.S. Pat. No. 6,642,235; cited from earlier work
[5] = controlled studies, cited from earlier work
[6] = Completers and MF (morning fasting) weight

| Compound | Mean Change from Baseline (weight) [1, 6] | Mean Change from Baseline (weight) ([1]; Completers and NMF weight) | Mean Change from Baseline (weight) ([1]; ITT-LOCF & NMF weight) | Mean Change from Baseline (weight) ([1]; ITT-LOCF and MF weight) | mean change in body mass over the course of the study, in words (FIGS. 1-4) [1] | 6-week weight gain (or loss), in words [1] | side effects caused, in words [2] | side effects caused, in words [3] | norepinephrine reuptake inhibitor selectivity (Ki5HT/KiNA) [4] | weight gain of greater than or equal to 7% of body weight, share of patients ([5]; placebo 0%) | appetite increase reported, share of patients ([5]; placebo 2%) | increase in body weight / weight gain ([1]; 6 weeks, text summary of the tables (values of Table 1A-1, mean ± standard error)) |
| --- | --- | --- | --- | --- | --- | --- | --- | --- | --- | --- | --- | --- |
| CCOc1ccccc1OC(c1ccccc1)C1CNCCO1 (racemic) [reboxetine, 2-[(2-ethoxyphenoxy)-phenyl-methyl]morpholine] | -1.61 kg | -1.7 kg | -1.693 kg | -1.685 kg | decrease in body mass | weight loss as compared to placebo-only | insomnia, nausea/vomiting, and weight loss | insomnia, nausea/vomiting, and weight loss | about 80 | – | – | – |
| CN(C)CCC=C1c2ccccc2CCc2ccccc21 [amitriptyline] | – | – | – | – | – | – | – | – | – | 5.9% | 6% | – |
| CN1CCN2c3ncccc3Cc3ccccc3C2C1 (stereo not drawn) [mirtazapine, 1,2,3,4,10,14b-hexahydro-2-methylpyrazino[2,1-a]pyrido[2,3-c]benzazepine] | 2.215 kg | 1.943 kg | 1.8 kg | 2.043 kg | marked increase in body mass | significantly greater weight gain | weight gain, sedation, and cognitive deficits | weight gain, sedation, and cognitive deficits | – | – | – | 2.215 ± 0.385 kg |
| (S,S)reboxetine | – | – | – | – | – | – | – | – | about 12,700 | – | – | – |
